Data reported in patent US12036312B2, “Non-aqueous topical compositions comprising a halogenated salicylanilide” (priority 2016, dated 2024).
Converted amounts (≈) assume the structure as drawn. Read-outs that look alike come from different tables or passages of the source.

Columns and labels:
S. pyogenes = assay: Minimum inhibitory concentration (MIC) assay, Example 1, S. pyogenes strains; type: cell-based; conditions: Streptococcus pyogenes, read-out: MIC
Description: Twenty-one other MRSA and methicillin-sensitive S. aureus strains, and 4 Streptococcus pyogenes strains, were also included in the study (Table 2). These covered fusidic acid- and mupirocin-resistant strains, these two types of resistance being of clinical relevance.
Strains were conserved in Luria Bertani (LB) Broth (S. aureus) or Brain Heart Infusion (BHI) (S. pyogenes) supplemented with glycerol 15% (v/v) at −80° C., and reactivated by isolation on LB (S. aureus) or BHI (S. pyogenes) agar plates. Strains were cultivated in Mueller Hinton (MH) Broth-cation adjusted (S. aureus) supplemented with lysed horse blood 2.5% (v/v) (S. pyogenes). All strains were cultivated at 37° C., aerobically for S. aureus strains.
Bacterial cultures were stopped in their exponential growth phase and plates were inoculated with the approximate concentration of 10^3 cells per well. Plates were incubated at 37° C. for 18 hours (S. aureus) or 24 hours (S. pyogenes). Optical density at a wavelength of 600 nm was measured at the end of the incubation time. […] Experiments were performed at least as triplicate biological replicates with all strains.

MRSA 01 = assay: Time-kill assay; type: cell-based, Staphylococcus aureus; conditions: initial inoculum 7 log10 cfu/ml, niclosamide 4 μg/ml [MIC×10]
Description: This assay was performed in 20 ml of medium. It included a negative control (medium without bacteria), a positive control (bacteria grown without niclosamide) and the assay (bacteria grown with niclosamide). […] This experiment was performed with the primary test microorganism indicated above.
The overnight culture was stopped and OD600 was measured. Culture was then diluted in indicated medium to obtain an OD600 of 0.25 in order to have about 5×10^8 cfu/ml. Two hundred μl of this diluted culture were then added in all conditions except in the negative control. Initial bacterial concentration was about 5×10^6 cfu/ml. Tubes were incubated aerobically at 37° C. for 24 hours.
Bacteria were enumerated before the incubation, after 30 minutes, 1, 2, 4, 8 and 24 hours of incubation by serial dilutions in NaCl 0.9% and plating on LB agar, with 2 plates per dilution. Plates were incubated at 37° C. and colonies enumerated after 24 hours.

In the case of `O=C(Nc1ccc([N+](=O)[O-])cc1Cl)c1cc(Cl)ccc1O` [Niclosamide, niclosamide], the MIC (S. pyogenes; ATCC12385, S. pyogenes strain ATCC 12385) was 1.6 µg/mL (≈ 4.89 µM), the MIC (S. pyogenes; ATCC19615, S. pyogenes strain ATCC 19615) was 3.2 µg/mL (≈ 9.78 µM) and the MIC (S. pyogenes; CCUG25571, S. pyogenes strain CCUG 25571) was 3.2 µg/mL (≈ 9.78 µM). For the same compound, the MIC (S. pyogenes; S. pyogenes strain 01) was 3.2 µg/mL (≈ 9.78 µM) and the “bactericidal or bacteriostatic effect” value (MRSA 01) was “bacteriostatic effect”.
